Experiments:
ectopic E-MSCs [1] = conditions: 25 μM, previously described (Canosa et al., 2017), positive control; cited from earlier work
ectopic E-MSCs [2] = experiment: Matrigel transwell invasion assay, ectopic E-MSCs; type: cell-based, human; conditions: 5 μM spiperone pre-treatment 1 h, then 100 nM quinagolide, ectopic EMSCs
Description: FIG. 4: Quinagolide effect on EMSCs invasion. A and B: Representative micrographs (A) and quantification (B) of quinagolide effect (100 nM) on eutopic and ectopic (both ovarian and peritoneal) EMSCs invasion (original magnification: ×100). C: Concentration response effect of quinagolide treated ectopic EMSCs invasion. D and E: Quantification (D) and representative micrographs (E) (original magnification: ×100) of invasion assays performed on ectopic EMSCs (both ovarian and peritoneal), treated with 100 nM quinagolide (Q100 nM), 5 μM spiperone(S) or a combination of quinagolide and spiperone (S+Q100 nM). All invasion data are represented as mean±SD of at least three independent experiments, performed on different EMSC lines, and normalized to untreated cells (CTL). One-way ANova was performed: *=p<0.05 and **=p<0.001 vs CTL. Quinagolide powder (provided by Ferring Pharmaceuticals) was stored at 4° C. and resuspended in dimethylsulphoxide (DMSO) to a stock solution of 1 mM immediately before use. Spiperone powder (Sigma-Aldrich) was resuspended in water to a stock concentration of 1 mM and stored at −20° C. Cabergoline powder (Sigma-Aldrich) was dissolved in DMSO to a stock concentration of 25 mM and stored at −20° C. […] Quinagolide, cabergoline, sorafenib and cabozantinib and were administered for 24 hours during co-culture experiments, while spiperone was added to culture medium 1 h before quinagolide treatment. […] E-MSCs were seeded in triplicate in Matrigel-precoated (100 μg Matrigel/transwell) 8-um pore transwells at a concentration of 50,000 cells per well in 200 μl of RPMI 2% FCS with/without quinagolide at the indicated concentration. To test the D2 antagonist effect, E-MSCs were pre-treated with spiperone (5 μM) for 1 h at 37° C. before cell detachment. After 48 hours, invaded E-MSCs on the bottom side of the transwell were fixed with methanol and stained with crystal violet. At least five pictures per transwell were acquired (original magnification: 100×), and the percentage of transwell area covered by invaded EMSCs was quantitatively measured by ImageJ software.

ectopic E-MSCs [3] = experiment: Endothelial differentiation (CD31) of ectopic E-MSCs in co-culture with HUVECs; type: cell-based, human; conditions: for endothelial differentiation (CD31 expression) of E-MSCs: 1 μM, 24 h treatment, 48 h co-culture with HUVECs
Description: FIG. 5: Quinagolide effect on EMSCs endothelial differentiation. A. FACS gating-strategy for the analysis of CD31^+ EMSCs after direct 48 h co-culture with HUVECs. EMSCs are gated as GFP negative population, and CD31 expression is evaluated on the described gated EMSCs after 48 h co-culture with HUVECs as percentage of CD31 APC positive events. B, C and D: Representative flow cytometry micrographs and quantification, expressed as percentage of variation respect to control co-culture, of the effect of 24 h treatment of EMSCs with 25 μM cabergoline, 1 μM sorafenib, 1 μM cabozantinib (B), 100 nM quinagolide (C) and the combination of 5 μM spiperone and 100 nM quinagolide (D) on EMSCs CD31 expression after 48 h of co-culture with HUVECs. Data are represented as mean±SD of at least three independent experiments, performed on different ectopic EMSC lines, and normalized to untreated co-culture. One-way ANova was performed: *=p<0.05 and ***=p<0.001 vs control.
(BSA)-Phosphate Buffered Saline (PBS) (Sigma). For each staining, 100,000 cells were incubated for 20 minutes at 4° C. with FITC, APC or PE-conjugated antibodies against: CD29, CD44, CD73, CD90 (BD Bioscences, Franklin Lakes, NJ, USA); CD31, CD34, CD105, CD140b, CD146, TEK receptor tyrosine kinase (Tie2), Sushi domain-containing protein 2 (SUSD2) (Miltenyi Biotech, Bergisch Gladbach, Germany); CD45 (AbD Serotec, Raleigh, NC, USA), or epithelial cell adhesion molecule (EPCAM) (BioLegend, San Diego, CA, USA). Labelled cells were washed by centrifugation and final pellet was resuspended in 200 μl of 0.1% BSA-PBS before cytofluorimetric analysis. Isotype (Miltenyi Biotec) was used as negative control.
Quinagolide powder (provided by Ferring Pharmaceuticals) was stored at 4° C. and resuspended in dimethylsulphoxide (DMSO) to a stock solution of 1 mM immediately before use. Spiperone powder (Sigma-Aldrich) was resuspended in water to a stock concentration of 1 mM and stored at −20° C. Cabergoline powder (Sigma-Aldrich) was dissolved in DMSO to a stock concentration of 25 mM and stored at −20° C. Sorafenib and cabozantinib (Sigma-Aldrich) were resuspended in DMSO to a final concentration of 10 mM and according to the manufacturer's instructions, and stored at −20° C. and −80° C., respectively. Quinagolide, spiperone and cabergoline were diluted 1:100 (final concentration 100 nM), 1:1000 (final concentration 5 μM) and 1:1000 (final concentration 25 μM) respectively. Quinagolide, cabergoline, sorafenib and cabozantinib and were administered for 24 hours during co-culture experiments, while spiperone was added to culture medium 1 h before quinagolide treatment. For invasion assays, E-MSCs were treated with spiperone 1 h before the cell detachment and quinagolide was added only when cells were plated on Matrigel. […]

C=CCN1C[C@H](C(=O)N(CCCN(C)C)C(=O)NCC)C[C@@H]2c3cccc4[nH]cc(c34)C[C@H]21 [cabergoline]
E-MSC's angiogenic potential (ectopic E-MSCs [1]): decrease

O=C(CCCN1CCC2(CC1)C(=O)NCN2c1ccccc1)c1ccc(F)cc1 [spiperone]
reversal of quinagolide anti-invasive effect (ectopic E-MSCs [2]): completely reverted | block of quinagolide effect on CD31 expressing E-MSCs (ectopic E-MSCs [3]; 5 μM spiperone one hour before 100 nM quinagolide, co-culture): blocked

COc1cc2nccc(Oc3ccc(NC(=O)C4(C(=O)Nc5ccc(F)cc5)CC4)cc3)c2cc1OC [cabozantinib]
endothelial differentiation (CD31 expression) of E-MSCs (ectopic E-MSCs [3]): no effect

CNC(=O)c1cc(Oc2ccc(NC(=O)Nc3ccc(Cl)c(C(F)(F)F)c3)cc2)ccn1 [Sorafenib]
endothelial differentiation (CD31 expression) of E-MSCs (ectopic E-MSCs [3]): no effect

— patent US20240361338A1, “DIAGNOSIS AND TREATMENT OF ECTOPIC ENDOMETRIOSIS” (FERRING B.V., priority 2021, published 2024)
